Here are results for twelve compounds from patent publication US8017792B2, “1-thio-D-glucitol derivatives” (Taisho Pharmaceutical Co., Ltd., priority 2005, dated 2011).

The term melting point denotes the temperature of the solid-liquid transition.

Data set [1] deals with rat kidney brush border membrane vesicles (BBMV). Nature of the data set: Glucose uptake inhibition in rat kidney brush border membrane vesicles (Test Example 1). The data set is classed as biochemical. The settings on record: D-[6-3H]glucose 0.1 mM, 37° C., five seconds, read-out: IC50 (concentration at which glucose uptake was inhibited by 50%). The protocol:
After 50 μL of a suspension (protein concentration: 4 mg/mL) of rat kidney brush border membrane vesicles (brush border membrane […]: BBMV) prepared following the method described in a document (Anal. Biochem., Vol. 201, Clause 301, 1984) was preincubated at 37° C. for two minutes, 150 μL of a reaction mixture which was a mixture of a test compound dissolved in DMSO (DMSO final concentration: 1%), 100 mM mannitol, 100 mM NaSCN or KSCN, 10 mM HEPES/Tris pH 7.4, D-glucose (final concentration: 0.1 mM) and 1 μCi of D-[6-^3H] glucose (Amersham) was added to this. After performing a reaction at 37° C. for five seconds, 1 mL of an ice cooled reaction terminating solution (150 mM NaCl, 10 mM HEPES/Tris pH 7.4, 0.3 mM phlorizin) was added to the reaction mixture to terminate the reaction, and BBMV was immediately separated by rapid filtration using a membrane filter (HAWP02500 having a pore size of 0.45 μm, Millipore). The membrane filter was washed three times with 4.5 mL of the ice cooled reaction terminating solution. After the membrane was dried sufficiently, radioactivity was measured with a liquid scintillation counter (Beckman) to quantify the amount of glucose taken in BBMV on the membrane filter.

The next data set has as its target T1, Human SGLT2 (Homo sapiens, UniProt P31639).
T1 construct: expressed in transfected cells; host or cells: CHO-K1
T1 sequence (P31639 1-672): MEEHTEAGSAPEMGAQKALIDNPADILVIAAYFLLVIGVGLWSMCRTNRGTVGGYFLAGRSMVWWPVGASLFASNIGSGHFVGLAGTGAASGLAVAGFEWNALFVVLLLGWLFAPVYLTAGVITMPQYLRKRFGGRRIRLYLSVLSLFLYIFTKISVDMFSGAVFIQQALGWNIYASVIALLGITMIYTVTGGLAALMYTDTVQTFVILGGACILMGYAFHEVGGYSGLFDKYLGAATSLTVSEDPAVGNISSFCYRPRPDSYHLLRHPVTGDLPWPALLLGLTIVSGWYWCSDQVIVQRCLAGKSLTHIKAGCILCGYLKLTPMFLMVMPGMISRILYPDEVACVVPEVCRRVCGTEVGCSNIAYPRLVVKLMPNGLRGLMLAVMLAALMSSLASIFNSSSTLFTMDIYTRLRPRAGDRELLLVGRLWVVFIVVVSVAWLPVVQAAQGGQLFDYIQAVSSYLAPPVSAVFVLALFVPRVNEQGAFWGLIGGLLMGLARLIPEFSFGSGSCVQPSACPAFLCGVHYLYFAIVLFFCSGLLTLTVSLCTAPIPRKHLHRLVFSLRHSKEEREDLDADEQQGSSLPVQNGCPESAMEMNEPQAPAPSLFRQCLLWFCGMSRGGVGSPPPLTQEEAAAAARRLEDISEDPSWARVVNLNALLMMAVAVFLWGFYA
In words: Sodium-dependent sugar uptake inhibition test in CHO-K1 cells stably expressing human SGLT2 (Test Example 2). The settings on record: for IC50: CHO-K1 cells, [14C]methyl-α-D-glucopyranoside 1 mM, 37° C., one hour; for SGLT1/SGLT2: ratio of IC50 human SGLT1 to IC50 human SGLT2. The data set is classed as cell-based. The protocol: (§1) Human SGLT1 sequence (NM_000343) was reverse-transcripted from human small intestinal mRNA, then amplified, and then introduced into pCMV-tag5A from Stratagene Corporation. Human SGLT2 sequence (NM_003041) was prepared from human nephric mRNA as with the above method, and then introduced into pcDNA3.1+hygro from Invitrogen Corporation. Each cloned sequence was confirmed to be identical with the reported sequence.
(§2) CHO-K1 cells were transfected with the human SGLT1 and human SGLT2 expression vectors using Lipofectamine 2000 (Invitrogen Corporation). SGLT expression cells were cultured in the presence of geneticin (SGLT1) or hygromycin B (SGLT2) of the concentration of 500 μg/mL to select resistant strains. Cells were obtained using sugar uptake specific activity as an index in the following system.
(§3) Cells stably expressing human SGLT1 and human SGLT2 were used in the sodium-dependent sugar uptake activity inhibition test. Cells were incubated in 1 mL of a pretreatment buffer solution (140 mM choline chloride, 2 mM KCl, 1 mM CaCl2, 1 mM MgCl2, 10 mM HEPES/5 mM Tris, pH 7.4) for 20 minutes. The pretreatment buffer solution was removed and 200 μL of an uptake buffer containing test compounds (methyl-α-D-glucopyranoside containing [^14C]methyl-α-D-glucopyranoside (0.1 mM for SGLT1 inhibition, 1 mM for SGLT2 inhibition), 140 mM NaCl, 2 mM KCl, 1 mM CaCl2, 1 mM MgCl2, 10 mM HEPES/5 mM Tris, pH 7.4) were added, and uptake reaction was performed at 37° C. for 30 minutes (SGLT1) or for one hour (SGLT2). After the reaction, cells were washed with 1 mL of a washing buffer (10 mM methyl-α-D-glucopyranoside, 140 mM choline chloride, 2 mM KCl, 1 mM CaCl2, 1 mM MgCl2, 10 mM HEPES/5 mM Tris, pH 7.4) twice and dissolved in 400 μL of 0.2 M NaOH solution. After Aquazole 2 (Perkin Elmer Corporation) was added and mixed well, radioactivity was measured with a liquid scintillation counter (Beckman Coulter Corporation). A buffer for uptake which contained no test compound was prepared as a control group. Another buffer solution for uptake containing choline chloride in place of NaCl was also prepared for basic uptake.

The next data set addresses T2, Human SGLT1 (Homo sapiens, UniProt P13866).
T2 construct: expressed in transfected cells; host or cells: CHO-K1
T2 sequence (P13866 1-664): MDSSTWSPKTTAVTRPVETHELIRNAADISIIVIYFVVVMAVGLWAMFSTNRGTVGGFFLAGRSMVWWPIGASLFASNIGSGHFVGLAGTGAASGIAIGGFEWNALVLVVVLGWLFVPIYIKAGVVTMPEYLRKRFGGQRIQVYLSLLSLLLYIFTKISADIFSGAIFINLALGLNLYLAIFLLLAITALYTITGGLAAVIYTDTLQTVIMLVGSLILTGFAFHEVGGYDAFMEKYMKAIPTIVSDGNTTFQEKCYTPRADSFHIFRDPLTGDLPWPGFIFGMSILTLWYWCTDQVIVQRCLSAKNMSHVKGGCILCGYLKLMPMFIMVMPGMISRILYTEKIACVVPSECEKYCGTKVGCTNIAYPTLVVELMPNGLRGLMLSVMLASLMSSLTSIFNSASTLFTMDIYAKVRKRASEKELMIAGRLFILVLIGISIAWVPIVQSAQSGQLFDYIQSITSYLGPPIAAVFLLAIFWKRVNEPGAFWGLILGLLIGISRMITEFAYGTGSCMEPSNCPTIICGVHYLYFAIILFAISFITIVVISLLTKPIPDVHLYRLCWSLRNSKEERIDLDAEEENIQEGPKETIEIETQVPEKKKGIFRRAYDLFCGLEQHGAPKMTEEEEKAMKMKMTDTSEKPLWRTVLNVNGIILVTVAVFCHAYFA
Nature of the data set: Sodium-dependent sugar uptake inhibition test in CHO-K1 cells stably expressing human SGLT1 (Test Example 2). The format is cell-based. As to conditions: [14C]methyl-α-D-glucopyranoside 0.1 mM, 37° C., 30 minutes. The method, then: as §1, §2, §3

Regarding `CCOc1ccc(Cc2cccc([C@@H]3S[C@H](CO)[C@@H](O)[C@H](O)[C@H]3O)c2)cc1` [Compound 75, (1S)-1,5-Anhydro-1-[3-(4-ethoxybenzyl)phenyl]-1-thio-D-glucitol], the IC50 in data set [1] was 1.6 µM; against Human SGLT2, 2.83 µM; against Human SGLT1, 27.4 µM. Besides, the SGLT1/SGLT2 on Human SGLT2 was found to be 9.7.

The compound `COc1ccc([C@@H]2S[C@H](CO)[C@@H](O)[C@H](O)[C@H]2O)cc1Cc1cc2ccccc2s1` [Compound 127, (1S)-1,5-Anhydro-1-[3-[(1-benzothien-2-yl)methyl]-4-methoxyphenyl]-1-thio-D-glucitol] had a melting point of 91 to 105 °C. Moreover, the IC50 in data set [1] came out at 0.35 µM. For the same compound, at Human SGLT2, the IC50 stood at 1.12 µM and the SGLT1/SGLT2 was found to be 0.6. For the same compound, the IC50 against Human SGLT1 was determined as 0.7 µM.

For `OC[C@H]1S[C@@H](c2ccc(Cl)c(Cc3cc4ccccc4s3)c2)[C@H](O)[C@@H](O)[C@@H]1O` [Compound 128, (1S)-1,5-Anhydro-1-[3-[(1-benzothien-2-yl)methyl]-4-chlorophenyl]-1-thio-D-glucitol], the melting point fell in the range of 105 to 115 °C. Also, the IC50 in data set [1] amounted to 0.79 µM. Moreover, on Human SGLT2, the IC50 was 0.14 µM and the SGLT1/SGLT2 came to 4.4. The IC50 against Human SGLT1 stood at 0.6 µM.

The compound `CCOc1ccc(Cc2cc([C@@H]3S[C@H](CO)[C@@H](O)[C@H](O)[C@H]3O)c(O)cc2O)cc1` [Compound 100, (1S)-1,5-Anhydro-1-[3-(4-ethoxybenzyl)-4,6-dihydroxyphenyl]-1-thio-D-glucitol] displayed a melting point of 186 to 190 °C. For the same compound, at Human SGLT2, the IC50 amounted to 1.52 µM and the SGLT1/SGLT2 is 2.9. This compound displayed an IC50 against Human SGLT1 of 4.4 µM.

As for `CCOc1ccc(Cc2cc([C@@H]3S[C@H](CO)[C@@H](O)[C@H](O)[C@H]3O)ccc2Cl)cc1` [Compound 76, (1S)-1,5-Anhydro-1-[4-chloro-3-(4-ethoxybenzyl)phenyl]-1-thio-D-glucitol], the IC50 in data set [1] stood at 0.32 µM. Further, at Human SGLT2, the IC50 is 0.08 µM and the SGLT1/SGLT2 is on record as 14.6.

The compound `COc1ccc(Cc2cc3ccccc3s2)cc1[C@@H]1S[C@H](CO)[C@@H](O)[C@H](O)[C@H]1O` [Compound 130, (1S)-1,5-Anhydro-1-[3-[(1-benzothien-2-yl)methyl]-6-methoxyphenyl]-1-thio-D-glucitol] had a melting point of 97.5 to 98 °C. This compound yielded an IC50 at Human SGLT2 of 2.12 µM. For the same compound, the IC50 on Human SGLT1 was more than 10 µM.

In the case of `CCOc1ccc(Cc2ccc(O)c([C@@H]3S[C@H](CO)[C@@H](O)[C@H](O)[C@H]3O)c2)cc1` [Compound 79, (1S)-1,5-Anhydro-1-[3-(4-ethoxybenzyl)-6-hydroxyphenyl]-1-thio-D-glucitol], the IC50 in data set [1] came to 0.22 µM; on Human SGLT2, 0.37 µM; against Human SGLT1 it was 2.7 µM. For the same compound, the SGLT1/SGLT2 at Human SGLT2 stood at 7.2.

On to `CCOc1ccc(Cc2cc([C@@H]3S[C@H](CO)[C@@H](O)[C@H](O)[C@H]3O)ccc2Cl)cc1Cl` [Compound 85, (1S)-1,5-Anhydro-1-[4-chloro-3-(3-chloro-4-ethoxybenzyl)phenyl]-1-thio-D-glucitol], for which the melting point was in the range of 79 to 82 °C. Moreover, at Human SGLT2, the IC50 came out at 1.27 µM and the SGLT1/SGLT2 is on record as 4.8. The IC50 against Human SGLT1 was determined as 6.1 µM.

Turning to `CCOc1cc(F)c(Cc2cc([C@@H]3S[C@H](CO)[C@@H](O)[C@H](O)[C@H]3O)ccc2Cl)cc1F` [Compound 83, (1S)-1,5-Anhydro-1-[4-chloro-3-(2,5-difluoro-4-ethoxybenzyl)phenyl]-1-thio-D-glucitol], the melting point fell in the range of 72 to 76 °C. For the same compound, on Human SGLT2, the IC50 worked out at 0.03 µM and the SGLT1/SGLT2 is reported as 48.7. The same compound came in with an IC50 against Human SGLT1 of 1.5 µM.

The compound `OC[C@H]1S[C@@H](c2cccc(Cc3cc4ccccc4s3)c2)[C@H](O)[C@@H](O)[C@@H]1O` [Compound 129, (1S)-1,5-Anhydro-1-[3-[(1-benzothien-2-yl)methyl]-phenyl]-1-thio-D-glucitol] came in with a melting point of 159.5 to 160 °C. In addition, at Human SGLT2, the IC50 was found to be 3 µM and the SGLT1/SGLT2 is 4.3. On Human SGLT1, this compound gave an IC50 of 12.8 µM.

Consider `CCc1ccc(Cc2cccc([C@@H]3S[C@H](COCc4ccccc4)[C@@H](OCc4ccccc4)[C@H](OCc4ccccc4)[C@H]3OCc3ccccc3)c2)cc1` [Compound 1, (1S)-1,5-anhydro-2,3,4,6-tetra-O-benzyl-1-[3-(4-ethylbenzyl)phenyl]-1-thio-D-glucitol], for which the melting point lay in the range of 100 to 102.5 °C.

In the case of `CCOc1ccc(Cc2cc([C@@H]3S[C@H](CO)[C@@H](O)[C@H](O)[C@H]3O)ccc2Cl)cc1F` [Compound 84, (1S)-1,5-Anhydro-1-[4-chloro-3-(3-fluoro-4-ethoxybenzyl)phenyl]-1-thio-D-glucitol], the melting point was in the range of 73 to 81 °C. At Human SGLT2, the IC50 is 0.17 µM and the SGLT1/SGLT2 worked out at 12.5. Besides, at Human SGLT1, the IC50 turned out to be 2.1 µM.
